This assay deals with sulfhydryl oxidase. Kind of assay: Effect of metal ions and EDTA on sulfhydryl oxidase activity. It is filed as biochemical, bovine. As to the method: In the second method of assay, the rate of O2 consumption was measured with an oscillating platinum electrode using a Gilson model K Oxygraph. In a typical assay, 0.2 ml of enzyme solution was added to 1.5 ml of 0.8 mM GSH which had been equilibrated at 35° in the electrode cell. […] Enzymic reaction rates were calculated from the initial slopes obtained.
Assays were performed in phosphate at pH 7.0 and 35° using 0.8 mM GSH as substrate. An aliquot of the stock enzyme solution was removed and assayed in the presence of 1.0 mM EDTA. […] Controls were prepared using boiled enzyme and also using the dialysate containing the metal ion. In both cases, significant O2 consumption was not observed.

Where [1] appears, read: EDTA-treated enzyme dialyzed against 1.0 mM solution of the metal ion, phosphate pH 7.0, 35°, 0.8 mM GSH.

Regarding `[Cl][Co][Cl]` [Cobalt chloride], the Enzyme activity under setting [1] was found to be 0.021 μmol O2 consumed/min.

In the case of `O=S(=O)([O-])[O-].[Cu+2]` [Copper sulfate], the Enzyme activity under setting [1] was determined as 0.109 μmol O2 consumed/min.

As to `O=C(O)CN(CCN(CC(=O)O)CC(=O)O)CC(=O)O` [EDTA], the “Effect of EDTA treatment on enzyme activity” value is given as “complete loss of activity”. For the setting “pH 7”, this compound registered an Enzyme activity of 0.012 μmol O2 consumed/min. `[Cl][Mn][Cl]` [Manganese (II) chloride] registered an Enzyme activity under setting [1] of 0.085 μmol O2 consumed/min.

`[Br][Mo][Br]` [Molybdenum dibromide, molybdenum dibromide] had an Enzyme activity under setting [1] of 0.008 μmol O2 consumed/min. As to `O=S(=O)([O-])[O-].[Zn+2]` [Zinc sulfate], the Enzyme activity under setting [1] came out at 0.029 μmol O2 consumed/min. Ferrous sulfate: under setting [1], the Enzyme activity came to 0.256 μmol O2 consumed/min. Moreover, the “Restoration of activity after EDTA treatment” value (dialysis against 1 μM ferrous sulfate) is listed as “restored”.
